Measured values as given in patent US6632621B1, “G protein-coupled receptor-like receptors and modulators thereof” (priority 1999, dated 2003).
Like-named read-outs stand apart in the source and are kept apart here. Where no end group is shown, it is not given here. [ ]: non-standard residue; d: D form. Tyr(3-I) = N[C@@H](Cc1ccc(O)c(I)c1)C(=O)O

What was measured:
CEGPCR12h receptor = biological target: T1, CEGPCR12h receptor (Caenorhabditis elegans, UniProt Q20275); experiment: [35S]GTPγS binding assay, CEGPCR12h expressed in CHO cells; type: biochemical, C. elegans; details: Table 11; for EC50: one range for the group, results apply to all CEGPCR12 isoforms
T1 sequence (Q20275 1-402): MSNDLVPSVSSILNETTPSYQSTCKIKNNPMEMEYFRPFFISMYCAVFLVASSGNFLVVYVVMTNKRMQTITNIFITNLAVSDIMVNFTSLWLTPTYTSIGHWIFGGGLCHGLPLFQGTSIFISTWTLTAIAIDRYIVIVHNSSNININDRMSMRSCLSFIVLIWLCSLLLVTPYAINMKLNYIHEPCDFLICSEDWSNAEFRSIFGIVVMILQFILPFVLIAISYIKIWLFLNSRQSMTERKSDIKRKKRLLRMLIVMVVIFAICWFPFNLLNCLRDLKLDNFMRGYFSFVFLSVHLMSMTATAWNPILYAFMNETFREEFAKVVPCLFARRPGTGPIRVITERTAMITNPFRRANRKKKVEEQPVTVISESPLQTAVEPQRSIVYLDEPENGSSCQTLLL
Description: (§1) Recombinant pCR3.1 clones encoding invertebrate GPCR-like receptors were transformed into wild-type CHO-K1 cells and functional expression was achieved using a temperature-shift incubation protocol. The CHO-K1 cells were cultured at 37° C. in a humidified atmosphere of 5% CO2 in air in DMEM medium supplemented with 10% heat-inactivated fetal bovine serum (i.e., FBS), 10 μg/ml gentamicin, and 0.1 mM nonessential amino acids to give complete DMEM medium. Additionally, for incubations at temperatures lower than 37° C., the medium was fortified with 10 mM HEPES (pH 7.4). Cells were transfected with recombinant pCR3.1 clones containing GPCR-like receptor DNAs, using LipofectAMINE PLUS™, essentially according to the manufacturer's instructions. […] In separate plastic tubes, PLUS (20 μl/plate; Life Technologies) was added to 0.75 ml/plate of recombinant plasmid DNA in OptiMEM (5 μg/plate; Gibco/BRL—Life Technologies), mixed and incubated at room temperature for 15 minutes. Separately, LipofectAMINE (30 μl/plate) was mixed with 0.75 ml OptiMEM and added to the pre-complexed DNA/PLUS mixture and incubated at room temperature for 15 minutes. The culture medium was then replaced with serum-free transfection medium (DMEM, 5 ml/plate). The DNA-PLUS-LipofectAMINE complex was then added to the plates (1.5 ml/plate) and mixed gently into the medium, followed by a 3 hour incubation at 37° C. in 5% CO2. At this time, the medium was supplemented with complete DMEM medium containing 20% FBS (6.5 ml/plate) and incubation was continued at 37° C. in 5% CO2. After a total of 24 hours at 37° C. in 5% CO2, the medium was replaced with complete DMEM medium fortified with 10 mM HEPES (10 ml/plate) and the cells were moved to an incubator maintained at 28-30° C. in a humidified atmosphere of 5% CO2 in air. The incubation continued for an additional 24 hours, typically at the lower temperature indicated above. A plasmid encoding Green Fluorescent Protein (i.e., GFP, 4 μg/plate) was used for transient GFP expression in CHO-K1 cells to estimate the transfection yields under the same conditions as used for GPCR-like receptor polynucleotides.
(§2) To assess expression, membranes were prepared from transfected CHO-K1 cells. Transfected cells were washed once with ice-cold Dulbecco's phosphate-buffered saline (i.e., PBS), 5 ml per 10 cm plate, and the cells were scraped into 5 ml of the same buffer. Cell suspensions from multiple plates were combined and centrifuged at 500×g for 10 minutes at 4° C. The cell pellet was reconstituted in ice-cold TEE (25 mM Tris, pH 7.4, 5 mM EGTA, 5 mM EDTA). Convenient aliquots were snap-frozen in liquid nitrogen and stored at −70° C. After thawing, the cells were homogenized and centrifuged at 500×g for 5 minutes at 4° C. to pellet nuclei and unbroken cells. Tile supernatant was centrifuged at 47,000×g for 30 minutes at 4° C. The membrane pellet was washed once with TEE, resuspended in 20 mM HEPES, pH 7.4, 100 mM NaCl, 10 mM MgCl2, 1 mM EDTA (assay buffer), distributed into aliquots of 0.5-1.0 ml, and frozen in liquid nitrogen. Membrane aliquots were stored at −70° C. Membrane protein concentration was determined using the BCA Protein Assay Reagent from Pierce (Rockford, Ill.), with bovine serum albumin (i.e., BSA) as a standard.
(§3) Aliquots of cell membranes prepared as described above and stored at −70° C. were thawed, homogenized, and diluted into buffer containing 20 mM HEPES, pH 7.4, 10 mM MgCl2, 1 mM EDTA, and 100 mM NaCl at a concentration of 10-50 μg/ml. Reaction mixtures were prepared in 96-well polypropylene plate, Nunc. Twenty microliters of a 10× putative modulator compound (including but not limited to potential peptide ligands) solution or a water control (20 μl), 18.2 µM GDP (0.11 ml, 10 μM final concentration), and a membrane preparation were mixed and placed on ice. The modulator/ligand-GDP-membrane mixtures were incubated for 20 minutes at room temperature on a shaking platform and then placed on ice.

CEGPCR5 = biological target: T2, CEGPCR5 (Caenorhabditis elegans, UniProt Q18179); experiment: [35S]GTPγS binding assay, CEGPCR5 expressed in CHO cells; type: biochemical, C. elegans
T2 sequence (Q18179 1-402): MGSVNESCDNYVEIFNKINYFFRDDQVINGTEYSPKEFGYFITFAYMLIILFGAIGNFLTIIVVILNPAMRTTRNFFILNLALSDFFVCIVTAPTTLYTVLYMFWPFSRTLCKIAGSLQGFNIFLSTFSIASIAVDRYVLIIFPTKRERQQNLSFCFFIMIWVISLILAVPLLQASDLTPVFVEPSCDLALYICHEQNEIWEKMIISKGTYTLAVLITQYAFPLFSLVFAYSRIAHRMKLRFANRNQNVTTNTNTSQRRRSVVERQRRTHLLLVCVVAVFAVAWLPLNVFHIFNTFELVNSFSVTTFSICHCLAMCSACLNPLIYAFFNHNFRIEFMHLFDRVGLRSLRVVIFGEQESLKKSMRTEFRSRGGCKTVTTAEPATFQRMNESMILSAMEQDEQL
Description: as §1, §2, §3

CEGPCR16 receptor = biological target: T3, CEGPCR16 receptor (Caenorhabditis elegans, UniProt Q9XXU4); experiment: [35S]GTPγS binding assay, CEGPCR16 expressed in CHO cells; type: biochemical, C. elegans; details: Table 10; one range for the group of peptides; read-out: EC50 range
T3 sequence (Q9XXU4 1-365): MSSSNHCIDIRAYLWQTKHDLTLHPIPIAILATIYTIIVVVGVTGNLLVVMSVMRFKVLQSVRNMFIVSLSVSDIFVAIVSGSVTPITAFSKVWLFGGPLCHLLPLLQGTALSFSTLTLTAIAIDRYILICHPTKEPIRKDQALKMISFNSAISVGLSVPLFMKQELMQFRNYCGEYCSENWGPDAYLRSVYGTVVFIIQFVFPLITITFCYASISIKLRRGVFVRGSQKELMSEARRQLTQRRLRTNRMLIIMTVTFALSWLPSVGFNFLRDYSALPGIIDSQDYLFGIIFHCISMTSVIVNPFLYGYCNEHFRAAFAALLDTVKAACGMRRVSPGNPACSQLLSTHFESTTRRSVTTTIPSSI
Description: as §1, §2, §3

CEGPCR4 = biological target: T4, CEGPCR4 (C. elegans); experiment: competition binding assay, CEGPCR4/CHO membranes; IC50 range printed once for block r39-r54
T4 construct: Expressed in CHO cells; also called CEGPCR4 receptor; CEGPCR4/CHO membranes
T4 chain: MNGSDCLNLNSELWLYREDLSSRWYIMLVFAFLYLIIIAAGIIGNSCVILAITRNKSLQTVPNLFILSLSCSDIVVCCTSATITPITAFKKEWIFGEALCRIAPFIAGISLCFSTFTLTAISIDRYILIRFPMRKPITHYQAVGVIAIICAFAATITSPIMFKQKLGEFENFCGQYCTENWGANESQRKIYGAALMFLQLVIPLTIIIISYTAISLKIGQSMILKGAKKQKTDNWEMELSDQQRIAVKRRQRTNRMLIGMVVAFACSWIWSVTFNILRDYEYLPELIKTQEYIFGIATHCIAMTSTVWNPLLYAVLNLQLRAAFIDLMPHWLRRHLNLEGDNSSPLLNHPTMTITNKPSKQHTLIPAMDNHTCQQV

FDDYGHLRF-NH2 [FDDYGHLRF-NH2]
EC50 (CEGPCR12h receptor; read-out: EC50 range): 0.3 to 0.5 µM

KHEYLRF-NH2 [KHEYLRF-NH2]
EC50 (CEGPCR5): 1 to 8 µM

TNRNFLRF-NH2 [TNRNFLRF-NH2]
EC50 (CEGPCR5; EC50 range, Table 9, one range for the group of peptides): 0.08 to 0.8 µM

KPNFLRF-NH2 [KPNFLRF-NH2]
EC50 (CEGPCR5): 1 to 8 µM

TDVDHVFLRF-NH2 [TDVDHVFLRF-NH2]
EC50 (CEGPCR12h receptor; EC50 range): 1.5 to 3 µM

DVPGVLRF-NH2 [DVPGVLRF-NH2]
EC50 (CEGPCR16 receptor): 0.7 to 4.6 µM
activity at single concentration (CEGPCR12h receptor; peptides tested at 5 μM): active at

SEVPGVLRF-NH2 [SEVPGVLRF-NH2]
EC50 (CEGPCR16 receptor): 0.7 to 4.6 µM

DPSFLRF-NH2 [DPSFLRF-NH2]
EC50 (CEGPCR5): 0.08 to 0.8 µM

EIVFHQISPIFFRF-NH2 [EIVFHQISPIFFRF-NH2]
EC50 (CEGPCR5): 1 to 8 µM

DFDGAMPGVLRF-NH2 [DFDGAMPGVLRF-NH2]
EC50 (CEGPCR16 receptor): 0.7 to 4.6 µM

EDGNAPFGTMRF-NH2 [EDGNAPFGTMRF-NH2]
EC50 (CEGPCR16 receptor): 0.06 to 0.3 µM

B1: VPGVLRF-NH2 (peptide)
peptide: VPGVLRF-NH2
notes: synthetic
binding result (CEGPCR4): binds

B2: Y-PGVLRF-NH2 (peptide)
peptide: YPGVLRF-NH2
notes: synthetic
binding result (CEGPCR4): binds

B3: 3-Iodo-Y-PGVLRF-NH2 (peptide)
peptide: [Tyr(3-I)]PGVLRF-NH2
modifications: N-terminus assumed
SMILES: CC(C)C[C@H](NC(=O)[C@@H](NC(=O)CNC(=O)[C@@H]1CCCN1C(=O)[C@@H](N)Cc1ccc(O)c(I)c1)C(C)C)C(=O)N[C@@H](CCCNC(=N)N)C(=O)N[C@@H](Cc1ccccc1)C(N)=O
notes: synthetic
binding result (CEGPCR4): binds

B4: Ac-GVLRF-NH2 (peptide)
peptide: Ac-GVLRF-NH2
notes: synthetic
binding result (CEGPCR4): binds

B5: Ac-VPGVLRF-NH2 (peptide)
peptide: Ac-VPGVLRF-NH2
notes: synthetic
binding result (CEGPCR4): binds

B6: Y-GVLRF-NH2 (peptide)
peptide: YGVLRF-NH2
notes: synthetic
binding result (CEGPCR4): binds

B7: PGVLRF-NH2 (peptide)
peptide: PGVLRF-NH2
notes: synthetic
binding result (CEGPCR4): binds

B8: GVLRF-NH2 (peptide)
peptide: GVLRF-NH2
notes: synthetic
binding result (CEGPCR4): binds
